Measured values published in publication PMC6328172, “5-HT2 receptor binding, functional activity and selectivity in N-benzyltryptamines” (PLoS ONE, 2019).
Several values for one entry are separate records, joined by “and”; a condition that tells them apart may be missing. Equal values may be shown once. Where a name gives a salt, the structure may show the parent alone. Read-outs that look alike come from different tables or passages of the source.

Legend:
[1] = target: T1, human 5-HT2C receptor (Homo sapiens, UniProt P28335); experiment: Ca2+ mobilization in HeLa h5-HT2C cells; assay type: cell-based
T1 construct: expressed in transfected cells; host or cells: HeLa (HeLa-5-HT2C cell line)
T1 sequence (P28335 33-458): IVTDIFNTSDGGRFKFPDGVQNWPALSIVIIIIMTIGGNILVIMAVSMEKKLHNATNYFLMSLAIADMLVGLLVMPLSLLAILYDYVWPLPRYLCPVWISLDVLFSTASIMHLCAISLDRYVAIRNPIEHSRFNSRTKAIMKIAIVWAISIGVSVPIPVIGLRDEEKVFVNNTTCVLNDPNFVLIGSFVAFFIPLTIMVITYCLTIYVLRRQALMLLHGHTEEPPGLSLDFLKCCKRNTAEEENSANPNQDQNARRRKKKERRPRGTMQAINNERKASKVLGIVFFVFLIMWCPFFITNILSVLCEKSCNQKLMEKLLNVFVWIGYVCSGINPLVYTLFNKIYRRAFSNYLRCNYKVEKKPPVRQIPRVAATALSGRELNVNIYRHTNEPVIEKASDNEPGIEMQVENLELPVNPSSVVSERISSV

[2] = target: T2, human 5-HT2A receptor (Homo sapiens, UniProt P28223); experiment: Competition binding to the human 5-HT2A receptor ([3H]ketanserin, CHO-5-HT2A membranes); details: for Ki: human receptor, [3H]ketanserin displacement, no unit in the table, nM, read-out: 5-HT2A Ki (in parentheses) (converted); for Selectivity 5-HT2A/2C (binding): from Ki values, Table 1
T2 construct: expressed in transfected cells; host or cells: CHO (CHO-5-HT2A cell line)

[3] = target: human 5-HT2B receptor (Homo sapiens, UniProt P41595); experiment: Competition binding to the human 5-HT2B receptor ([3H]LSD, CHO-5-HT2B membranes)
[4] = target: T2, human 5-HT2A receptor; experiment: Ca2+ mobilization in CHO h5-HT2A cells; assay type: cell-based; details: for EC50: Ca2+ mobilization, no unit in the table, nM, read-out: 5-HT2A EC50 (in parentheses) (converted); for Selectivity 5-HT2A/2C (functional): from EC50 values, Table 2; for Emax: relative efficacy, % of response to 5-HT
[5] = target: T1, human 5-HT2C receptor; experiment: Competition binding to the human 5-HT2C receptor ([3H]mesulergine, HeLa-5-HT2C membranes); details: for Ki: human receptor, [3H]mesulergine displacement, no unit in the table, nM, read-out: 5-HT2C Ki (in parentheses) (converted); for Selectivity 5-HT2C/2A (binding, in parentheses): from Ki values, Table 1
[6] = Ca2+ mobilization; no unit in the table, nM; read-out: 5-HT2C EC50 (in parentheses) (converted)

human 5-HT2B receptor, sequence (P41595 whole entry): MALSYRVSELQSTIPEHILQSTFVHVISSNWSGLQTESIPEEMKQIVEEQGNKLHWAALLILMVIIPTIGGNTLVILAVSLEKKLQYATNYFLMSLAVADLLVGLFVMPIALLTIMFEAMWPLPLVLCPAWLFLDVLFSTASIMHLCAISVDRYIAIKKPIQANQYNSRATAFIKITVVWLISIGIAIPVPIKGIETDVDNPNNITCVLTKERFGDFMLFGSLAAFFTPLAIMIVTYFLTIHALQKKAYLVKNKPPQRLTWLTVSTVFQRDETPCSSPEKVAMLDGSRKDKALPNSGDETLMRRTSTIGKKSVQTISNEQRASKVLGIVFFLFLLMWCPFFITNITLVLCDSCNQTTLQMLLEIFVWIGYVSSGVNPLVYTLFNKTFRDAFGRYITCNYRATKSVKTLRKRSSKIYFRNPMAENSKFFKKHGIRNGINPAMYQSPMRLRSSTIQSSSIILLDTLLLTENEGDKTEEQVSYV
T2 sequence (P28223 whole entry): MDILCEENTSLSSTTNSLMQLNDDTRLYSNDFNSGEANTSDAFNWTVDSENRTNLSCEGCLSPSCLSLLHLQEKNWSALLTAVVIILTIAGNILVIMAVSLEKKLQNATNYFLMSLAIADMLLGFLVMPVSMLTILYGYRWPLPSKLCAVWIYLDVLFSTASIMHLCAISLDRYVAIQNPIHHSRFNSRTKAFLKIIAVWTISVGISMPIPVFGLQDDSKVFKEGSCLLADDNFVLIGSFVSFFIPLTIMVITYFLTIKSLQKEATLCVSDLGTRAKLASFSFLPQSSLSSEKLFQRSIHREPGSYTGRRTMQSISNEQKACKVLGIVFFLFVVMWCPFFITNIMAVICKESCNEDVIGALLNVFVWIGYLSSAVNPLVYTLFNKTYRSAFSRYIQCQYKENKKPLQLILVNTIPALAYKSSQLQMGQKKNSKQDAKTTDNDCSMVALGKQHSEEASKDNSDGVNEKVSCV

Oc1cccc(CNCCc2c[nH]c3ccccc23)c1 (as salt: fumarate) [Compound 7, N-(3-Hydroxybenzyl)-[2-(1H-indol-3-yl)ethyl]amine]
melting point: 206 to 207 °C

Cc1ccc(O)c(CNCCc2c[nH]c3ccccc23)c1 (as salt: fumarate) [Compound 23, N-(2-Hydroxy-5-methylbenzyl)-[2-(1H-indol-3-yl)ethyl]amine]
melting point: 183 to 185 °C

COc1ccc(O)c(CNCCc2c[nH]c3ccc(OC)cc23)c1 (as salt: fumarate) [Compound 42, N-(2-Hydroxy-5-methoxybenzyl)-[2-(5-methoxy-1H-indol-3-yl)ethyl]amine]
melting point: 196 to 197 °C

COc1ccc2[nH]cc(CCNCc3cc(F)ccc3O)c2c1 (as salt: fumarate) [Compound 43, N-(5-Fluoro-2-hydroxybenzyl)-[2-(5-methoxy-1H-indol-3-yl)ethyl]amine]
melting point: 200 to 201 °C

Oc1ccccc1CNCCc1c[nH]c2ccccc12 (as salt: hydrochloride) [Compound 2, N-(2-Hydroxybenzyl)-[2-(1H-indol-3-yl)ethyl]amine]
melting point: 222 to 223 °C

CCOc1ccc(CNCCc2c[nH]c3ccccc23)cc1 (as salt: hydrochloride) [Compound 15, N-(4-Ethoxybenzyl)-[2-(1H-indol-3-yl)ethyl]amine]
melting point: 206 to 208 °C

COc1cccc(CNCCc2c[nH]c3ccccc23)c1OC (as salt: hydrochloride) [Compound 20, N-(2,3-Dimethoxybenzyl)-[2-(1H-indol-3-yl)ethyl]amine]
melting point: 210 to 212 °C

Oc1ccc(F)cc1CNCCc1c[nH]c2ccccc12 (as salt: hydrochloride) [Compound 24, N-(5-Fluoro-2-hydroxybenzyl)-[2-(1H-indol-3-yl)ethyl]amine]
melting point: 185 to 186 °C

COc1ccc(F)cc1CNCCc1c[nH]c2ccccc12 (as salt: hydrochloride) [Compound 25, N-(5-Fluoro-2-methoxybenzyl)-[2-(1H-indol-3-yl)ethyl]amine]
melting point: 179 to 180 °C

Oc1ccc(Br)cc1CNCCc1c[nH]c2ccccc12 (as salt: hydrochloride) [Compound 26, N-(5-Bromo-2-hydroxybenzyl)-[2-(1H-indol-3-yl)ethyl]amine]
melting point: 188 to 189 °C

COc1ccc(Br)cc1CNCCc1c[nH]c2ccccc12 (as salt: hydrochloride) [Compound 27, N-(5-Bromo-2-methoxybenzyl)-[2-(1H-indol-3-yl)ethyl]amine]
melting point: 192 to 193 °C

COc1ccc(Cl)cc1CNCCc1c[nH]c2ccccc12 (as salt: hydrochloride) [Compound 28, N-(5-Chloro-2-methoxybenzyl)-[2-(1H-indol-3-yl)ethyl]amine]
melting point: 184 to 185 °C

COc1ccc(OC)c(CNCCc2c[nH]c3ccccc23)c1 (as salt: hydrochloride) [Compound 29, N-(2,5-Dimethoxybenzyl)-[2-(1H-indol-3-yl)ethyl]amine]
melting point: 175 to 176 °C

O=[N+]([O-])c1ccc(O)c(CNCCc2c[nH]c3ccccc23)c1 (as salt: hydrochloride) [Compound 30, N-(5-Nitro-2-hydroxybenzyl)-[2-(1H-indol-3-yl)ethyl]amine]
melting point: 194 to 196 °C

Oc1cc(Br)ccc1CNCCc1c[nH]c2ccccc12 (as salt: hydrochloride) [Compound 31, N-(4-Bromo-2-hydroxybenzyl)-[2-(1H-indol-3-yl)ethyl]amine]
melting point: 192 to 194 °C

COc1ccc(CNCCc2c[nH]c3ccccc23)c(OC)c1 (as salt: hydrochloride) [Compound 32, N-(2,4-Dimethoxybenzyl)-[2-(1H-indol-3-yl)ethyl]amine]
melting point: 184 to 186 °C

Oc1cccc(Br)c1CNCCc1c[nH]c2ccccc12 (as salt: hydrochloride) [Compound 33, N-(6-Bromo-2-hydroxybenzyl)-[2-(1H-indol-3-yl)ethyl]amine]
melting point: 195 to 196 °C

Oc1c(Br)cc(Br)cc1CNCCc1c[nH]c2ccccc12 (as salt: hydrochloride) [Compound 35, N-(3,5-Dibromo-2-hydroxybenzyl)-[2-(1H-indol-3-yl)ethyl]amine]
melting point: 183 to 184 °C

COc1cccc(CNCCc2c[nH]c3ccccc23)c1O (as salt: succinate) [Compound 19, N-(2-Hydroxy-3-methoxybenzyl)-[2-(1H-indol-3-yl)ethyl]amine]
melting point: 109 to 111 °C

Oc1cccc(F)c1CNCCc1c[nH]c2ccccc12 [Compound 34, N-(6-Fluoro-2-hydroxybenzyl)-[2-(1H-indol-3-yl)ethyl]amine]
EC50 [1, 6]: 18.6 nM
Emax ([1]; HeLa; read-out: 5-HT2C % Emax): 91.7 ± 6.6%
Selectivity 5-HT2C/2A (functional, in parentheses) ([1]; from EC50 values, Table 2): 2.13
Ki [2]: 229 nM
Ki [3]: 115 nM
EC50 [4]: 39.8 nM
Selectivity 5-HT2A/2C (functional) [4]: 0.47
Emax [4]: 49.3 ± 3.23%
Ki [5]: 155 nM

COc1ccc(CNCCc2c[nH]c3ccccc23)cc1OC [Compound 36, N-(3,4-Dimethoxybenzyl)-[2-(1H-indol-3-yl)ethyl]amine]
EC50 [1, 6]: 57.5 nM
Emax ([1]; HeLa; read-out: 5-HT2C % Emax): 100 ± 2.85%
Selectivity 5-HT2C/2A (functional, in parentheses) ([1]; from EC50 values, Table 2): 38.9
Selectivity 5-HT2A/2C (binding) [2]: 0.92
Ki [2]: 1290 nM
Ki [3]: 288 nM
EC50 [4]: 2240 nM
Selectivity 5-HT2A/2C (functional) [4]: 0.026
Emax [4]: 50.5 ± 8.27%
Selectivity 5-HT2C/2A (binding, in parentheses) [5]: 1.09
Ki [5]: 1200 nM

COc1ccc2[nH]cc(CCNCc3ccccc3)c2c1 [Compound 37, N-Benzyl-[2-(5-methoxy-1H-indol-3-yl)ethyl]amine]
EC50 [1, 6]: 14.4 nM
Emax ([1]; HeLa; read-out: 5-HT2C % Emax): 113 ± 3.47%
Selectivity 5-HT2C/2A (functional, in parentheses) ([1]; from EC50 values, Table 2): 1.41
Selectivity 5-HT2A/2C (binding) [2]: 2.93
Ki [2]: 33.1 nM
Ki [3]: 16.6 nM
EC50 [4]: 20.4 nM
Selectivity 5-HT2A/2C (functional) [4]: 0.71
Emax [4]: 63.2 ± 1.44%
Selectivity 5-HT2C/2A (binding, in parentheses) [5]: 0.34
Ki [5]: 95.5 nM

COc1ccc2[nH]cc(CCNCc3ccccc3Cl)c2c1 [Compound 39, N-(2-Chlorobenzyl)-[2-(5-methoxy-1H-indol-3-yl)ethyl]amine]
EC50 [1, 6]: 81.3 nM
Emax ([1]; HeLa; read-out: 5-HT2C % Emax): 106 ± 4.32%
Selectivity 5-HT2C/2A (functional, in parentheses) ([1]; from EC50 values, Table 2): 0.15
Selectivity 5-HT2A/2C (binding) [2]: 5.51
Ki [2]: 13.5 nM
Ki [3]: 37.1 nM
EC50 [4]: 12 nM
Selectivity 5-HT2A/2C (functional) [4]: 6.76
Emax [4]: 47.7 ± 1.57%
Selectivity 5-HT2C/2A (binding, in parentheses) [5]: 0.18
Ki [5]: 74.1 nM

COc1ccc2[nH]cc(CCNCc3ccccc3Br)c2c1 [Compound 40, N-(2-Bromobenzyl)-[2-(5-methoxy-1H-indol-3-yl)ethyl]amine]
EC50 [1, 6]: 27.5 nM
Emax ([1]; HeLa; read-out: 5-HT2C % Emax): 105 ± 4.32%
Selectivity 5-HT2C/2A (functional, in parentheses) ([1]; from EC50 values, Table 2): 1.07
Selectivity 5-HT2A/2C (binding) [2]: 5.66
Ki [2]: 12.3 nM
Ki [3]: 28.8 nM
EC50 [4]: 29.5 nM
Selectivity 5-HT2A/2C (functional) [4]: 0.93
Emax [4]: 44.8 ± 0.99%
Selectivity 5-HT2C/2A (binding, in parentheses) [5]: 0.18
Ki [5]: 70.8 nM

COc1ccc2[nH]cc(CCNCc3ccc(Br)cc3)c2c1 [Compound 41, N-(4-Bromobenzyl)-[2-(5-methoxy-1H-indol-3-yl)ethyl]amine]
EC50 [1, 6]: 132 nM
Emax ([1]; HeLa; read-out: 5-HT2C % Emax): 93.5 ± 3.05%
Selectivity 5-HT2C/2A (functional, in parentheses) ([1]; from EC50 values, Table 2): 14.1
Selectivity 5-HT2A/2C (binding) [2]: 0.98
Ki [2]: 389 nM
Ki [3]: 155 nM
EC50 [4]: 1860 nM
Selectivity 5-HT2A/2C (functional) [4]: 0.071
Emax [4]: 60.5 ± 2.41%
Selectivity 5-HT2C/2A (binding, in parentheses) [5]: 1.02
Ki [5]: 380 nM

COc1ccc(O)c(CNCCc2c[nH]c3ccc(OC)cc23)c1 [Compound 42, N-(2-Hydroxy-5-methoxybenzyl)-[2-(5-methoxy-1H-indol-3-yl)ethyl]amine]
Emax ([1]; HeLa, read-out: 5-HT2C % Emax): 89.4 ± 3.86%
Selectivity 5-HT2C/2A (functional, in parentheses) ([1]; from EC50 values, Table 2): 1.1
Selectivity 5-HT2A/2C (binding) [2]: 0.30
Ki [2]: 135 nM
Ki [3]: 20.4 nM
Selectivity 5-HT2A/2C (functional) [4]: 0.91
Emax [4]: 43.6 ± 0.9%
Selectivity 5-HT2C/2A (binding, in parentheses) [5]: 3.31
Ki [5]: 40.7 nM

COc1ccc2[nH]cc(CCNCc3cc(F)ccc3O)c2c1 [Compound 43, N-(5-Fluoro-2-hydroxybenzyl)-[2-(5-methoxy-1H-indol-3-yl)ethyl]amine]
EC50 [1, 6]: 3.63 nM
Emax ([1]; HeLa; read-out: 5-HT2C % Emax): 106 ± 3.05%
Selectivity 5-HT2C/2A (functional, in parentheses) ([1]; from EC50 values, Table 2): 0.38
Selectivity 5-HT2A/2C (binding) [2]: 9.66
Ki [2]: 3.98 nM
Ki [3]: 8.91 nM
EC50 [4]: 1.4 nM and 1.38 nM
Selectivity 5-HT2A/2C (functional) [4]: 2.63
Emax [4]: 83.3 ± 2.26%
Selectivity 5-HT2C/2A (binding, in parentheses) [5]: 0.10
Ki [5]: 39.8 nM
